# Reference: patent US20230200390A1, “SELECTIVE HERBICIDES BASED ON SUBSTITUTED ISOXAZOLIN CARBOXAMIDES AND MEFENPYR-DIETHYL” (BAYER AKTIENGESELLSCHAFT, priority 2020, published 2023)
# Assays:
# Type in all cases: in vivo
# [1] = system: spring barley, HORVS Montoya; test: Tank-mix; post-emergence: crop damage by herbicide with/without safener mefenpyr-diethyl; details: 10 DAT
# Method in brief: (§1)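 Greenhouse-grown spring wheat and barley treated post-emergence at 1–3-leaf stage with herbicide alone or tank-mixed with safener, sprayed at various dosages in 300 l/ha water. Crop injury scored visually 1–3 weeks after treatment as % vs untreated (0 none, 100 complete kill).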
# [2] = system: spring wheat, TRZAS Triso; test: as above
# Method in brief: as §1
# [3] = system: spring barley, HORVS Montoya; test: Seed treatment with safener; post-emergence herbicide, crop damage; details: for HER effect + SAF / Reduction [%] / Reduction [Difference]: mefenpyr-diethyl 0.5 g a.i./kg seed
# Method in brief: (§2)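 Wheat and barley seeds were coated with safener (g a.i./kg seed) in a slurry prediluted with milk, then sown and grown to BBCH 12. WP herbicides with 1 l/ha MERO in 300 l/ha water were sprayed post-emergence, with untreated-seed plants as reference. Crop damage (%) was scored visually at 10 and 21 DAT.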
# [4] = system: spring wheat, TRZAS Triso; test: as above; details: for HER effect + SAF [%] (crop damage) / Reduction [%] / Reduction [Difference]: mefenpyr-diethyl 0.5 g a.i./kg seed; for HER effect [%] (crop damage, herbicide without safener): no safener
# Method in brief: as §2
# [5] = HER 2 g a.i./ha + mefenpyr-diethyl 50 g a.i./ha
# [6] = HER 8 g a.i./ha + mefenpyr-diethyl 50 g a.i./ha
# [7] = HER 32 g a.i./ha + mefenpyr-diethyl 100 g a.i./ha
# [8] = HER 1.5 g a.i./ha + mefenpyr-diethyl 50 g a.i./ha, 21 DAT
# [9] = HER 6 g a.i./ha + mefenpyr-diethyl 50 g a.i./ha, 21 DAT
# [10] = HER 24 g a.i./ha + mefenpyr-diethyl 100 g a.i./ha, 21 DAT
# [11] = HER 2 g a.i./ha post-emergence, 10 DAT
# [12] = HER 8 g a.i./ha post-emergence, 10 DAT
# [13] = HER 32 g a.i./ha post-emergence, 10 DAT
# [14] = herbicide alone 8 g a.i./ha post-emergence, 10 DAT
# [15] = herbicide alone 32 g a.i./ha post-emergence, 10 DAT
# [16] = HER 8 g a.i./ha + mefenpyr-diethyl 50 g a.i./ha, 10 DAT
# [17] = HER 6 g a.i./ha + mefenpyr-diethyl 50 g a.i./ha, 10 DAT
# [18] = HER 24 g a.i./ha + mefenpyr-diethyl 100 g a.i./ha, 10 DAT
# [19] = HER 1 g a.i./ha + mefenpyr-diethyl 50 g a.i./ha
# [20] = HER 1 g a.i./ha + mefenpyr-diethyl 50 g a.i./ha, 21 DAT
# [21] = HER 4 g a.i./ha post-emergence, 21 DAT
# [22] = HER 16 g a.i./ha post-emergence, 21 DAT
compound,measurement,setting,value
COC(=O)C1(C)CC(NC(=O)C2(C(C)(F)F)CC(c3cc(F)cc(F)c3)=NO2)CO1 (mixture of isomers) [Example 1.94],HER effect + SAF,[1]; [5],0%
same,Reduction [%],[1]; [5],100%
same,Reduction [Difference],[1]; [5],30
same,HER effect + SAF,[1]; [6],30%
same,Reduction [%],[1]; [6],67%
same,Reduction [Difference],[1]; [6],60
same,HER effect + SAF,[1]; [7],70%
same,Reduction [%],[1]; [7],22%
same,Reduction [Difference],[1]; [7],20
same,HER effect,[1]; herbicide alone 2 g a.i./ha,30%
same,HER effect,[1]; herbicide alone 8 g a.i./ha,90%
same,HER effect,[1]; herbicide alone 32 g a.i./ha,90%
same,HER effect + SAF,[2]; [8],0%
same,Reduction [%],[2]; [8],100%
same,Reduction [Difference],[2]; [8],20
same,HER effect + SAF,[2]; [9],0%
same,Reduction [%],[2]; [9],100%
same,Reduction [Difference],[2]; [9],85
same,HER effect + SAF,[2]; [10],10%
same,Reduction [%],[2]; [10],88%
same,Reduction [Difference],[2]; [10],75
same,HER effect,"[2]; herbicide alone 1.5 g a.i./ha, 21 DAT",20%
same,HER effect,"[2]; herbicide alone 6 g a.i./ha, 21 DAT",85%
same,HER effect,"[2]; herbicide alone 24 g a.i./ha, 21 DAT",85%
same,HER effect + SAF,[3]; [11],0%
same,Reduction [%],[3]; [11],100%
same,Reduction [Difference],[3]; [11],30
same,HER effect + SAF,[3]; [12],20%
same,Reduction [%],[3]; [12],78%
same,Reduction [Difference],[3]; [12],70
same,HER effect + SAF,[3]; [13],30%
same,Reduction [%],[3]; [13],67%
same,Reduction [Difference],[3]; [13],60
same,HER effect,"[3]; herbicide alone 2 g a.i./ha post-emergence, 10 DAT",30%
same,HER effect,[3]; [14],90%
same,HER effect,[3]; [15],90%
same,HER effect + SAF [%] (crop damage),"[4]; 21 DAT, HER dose 1.5 g a.i./ha",0%
same,Reduction [%],"[4]; 21 DAT, HER dose 1.5 g a.i./ha",100%
same,Reduction [Difference],"[4]; 21 DAT, HER dose 1.5 g a.i./ha",20
same,"HER effect [%] (crop damage, herbicide without safener)","[4]; 21 DAT, HER dose 1.5 g a.i./ha",20%
same,HER effect + SAF [%] (crop damage),"[4]; 21 DAT, HER dose 6 g a.i./ha",10%
same,Reduction [%],"[4]; 21 DAT, HER dose 6 g a.i./ha",88%
same,Reduction [Difference],"[4]; 21 DAT, HER dose 6 g a.i./ha",75
same,"HER effect [%] (crop damage, herbicide without safener)","[4]; 21 DAT, HER dose 6 g a.i./ha",85%
same,HER effect + SAF [%] (crop damage),"[4]; 21 DAT, HER dose 24 g a.i./ha",20%
same,Reduction [%],"[4]; 21 DAT, HER dose 24 g a.i./ha",76%
same,Reduction [Difference],"[4]; 21 DAT, HER dose 24 g a.i./ha",65
same,"HER effect [%] (crop damage, herbicide without safener)","[4]; 21 DAT, HER dose 24 g a.i./ha",85%
C=CC1(C(=O)NC2COC(C(=O)OCCOC)C2)CC(c2cc(C)cc(F)c2)=NO1 (mixture of isomers) [Example 1.65],HER effect + SAF,[1]; [6],20%
same,Reduction [%],[1]; [6],75%
same,Reduction [Difference],[1]; [6],60
same,HER effect,[1]; herbicide alone 8 g a.i./ha,80%
same,HER effect + SAF,[2]; [16],0%
same,Reduction [%],[2]; [16],100%
same,Reduction [Difference],[2]; [16],20
same,HER effect,"[2]; herbicide alone 8 g a.i./ha, 10 DAT",20%
same,HER effect + SAF,[3]; [12],20%
same,Reduction [%],[3]; [12],75%
same,Reduction [Difference],[3]; [12],60
same,HER effect + SAF,[3]; [13],50%
same,Reduction [%],[3]; [13],38%
same,Reduction [Difference],[3]; [13],30
same,HER effect,[3]; [14],80%
same,HER effect,[3]; [15],80%
same,HER effect + SAF [%] (crop damage),"[4]; 10 DAT, HER dose 8 g a.i./ha",0%
same,Reduction [%],"[4]; 10 DAT, HER dose 8 g a.i./ha",100%
same,Reduction [Difference],"[4]; 10 DAT, HER dose 8 g a.i./ha",20
same,"HER effect [%] (crop damage, herbicide without safener)","[4]; 10 DAT, HER dose 8 g a.i./ha",20%
CC1(C(=O)NC2CC=C(C(=O)NS(C)(=O)=O)C2)CC(c2cc(F)cc(F)c2)=NO1 (mixture of isomers) [Example 1.61],HER effect + SAF,[1]; [6],30%
same,Reduction [%],[1]; [6],40%
same,Reduction [Difference],[1]; [6],20
same,HER effect,[1]; herbicide alone 8 g a.i./ha,50%
same,HER effect + SAF,[2]; [17],10%
same,Reduction [%],[2]; [17],80%
same,Reduction [Difference],[2]; [17],40
same,HER effect + SAF,[2]; [18],20%
same,Reduction [%],[2]; [18],60%
same,Reduction [Difference],[2]; [18],30
same,HER effect,"[2]; herbicide alone 6 g a.i./ha, 10 DAT",50%
same,HER effect,"[2]; herbicide alone 24 g a.i./ha, 10 DAT",50%
same,HER effect + SAF,[3]; [12],10%
same,Reduction [%],[3]; [12],80%
same,Reduction [Difference],[3]; [12],40
same,HER effect + SAF,[3]; [13],20%
same,Reduction [%],[3]; [13],67%
same,Reduction [Difference],[3]; [13],40
same,HER effect,[3]; [14],50%
same,HER effect,[3]; [15],60%
same,HER effect + SAF [%] (crop damage),"[4]; 10 DAT, HER dose 8 g a.i./ha",10%
same,Reduction [%],"[4]; 10 DAT, HER dose 8 g a.i./ha",80%
same,Reduction [Difference],"[4]; 10 DAT, HER dose 8 g a.i./ha",40
same,"HER effect [%] (crop damage, herbicide without safener)","[4]; 10 DAT, HER dose 8 g a.i./ha",50%
CC1(C(=O)NC2C=CC(C(=O)O)C2)CC(c2cc(F)cc(F)c2)=NO1 (stereo not drawn) [Example 1.36],HER effect + SAF,[1]; [19],60%
same,Reduction [%],[1]; [19],25%
same,Reduction [Difference],[1]; [19],20
same,HER effect,[1]; herbicide alone 1 g a.i./ha,80%
same,HER effect + SAF,[2]; [20],20%
same,Reduction [%],[2]; [20],76%
same,Reduction [Difference],[2]; [20],65
same,HER effect,"[2]; herbicide alone 1 g a.i./ha, 21 DAT",85%
same,HER effect + SAF,[3]; [21],50%
same,Reduction [%],[3]; [21],46%
same,Reduction [Difference],[3]; [21],43
same,HER effect + SAF,[3]; [22],70%
same,Reduction [%],[3]; [22],26%
same,Reduction [Difference],[3]; [22],25
same,HER effect,"[3]; herbicide alone 4 g a.i./ha post-emergence, 21 DAT",93%
same,HER effect,"[3]; herbicide alone 16 g a.i./ha post-emergence, 21 DAT",95%
same,HER effect + SAF [%] (crop damage),"[4]; 21 DAT, HER dose 1 g a.i./ha",0%
same,Reduction [%],"[4]; 21 DAT, HER dose 1 g a.i./ha",100%
same,Reduction [Difference],"[4]; 21 DAT, HER dose 1 g a.i./ha",85
same,"HER effect [%] (crop damage, herbicide without safener)","[4]; 21 DAT, HER dose 1 g a.i./ha",85%
same,HER effect + SAF [%] (crop damage),"[4]; 21 DAT, HER dose 4 g a.i./ha",30%
same,Reduction [%],"[4]; 21 DAT, HER dose 4 g a.i./ha",68%
same,Reduction [Difference],"[4]; 21 DAT, HER dose 4 g a.i./ha",63
same,"HER effect [%] (crop damage, herbicide without safener)","[4]; 21 DAT, HER dose 4 g a.i./ha",93%
same,HER effect + SAF [%] (crop damage),"[4]; 21 DAT, HER dose 16 g a.i./ha",50%
same,Reduction [%],"[4]; 21 DAT, HER dose 16 g a.i./ha",47%
same,Reduction [Difference],"[4]; 21 DAT, HER dose 16 g a.i./ha",45
same,"HER effect [%] (crop damage, herbicide without safener)","[4]; 21 DAT, HER dose 16 g a.i./ha",95%
